Laboratory results as given in the supplement of paper PMC12137928.
Counter-ions that a name gives are not always drawn.

Tested on: HCT116
Settings: 72 h
How it was run: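 HCT116 cells went into 1536-well plates at 250 per well. CellTiter-Glo luminescence was expressed relative to vehicle (0%) and positive control (-100%) and then pattern-corrected. Both IC50 and maximal efficacy were taken from four-parameter Hill fits.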

| IC50 cell viability (ICRF193 0 nM) | IC50 cell viability (ICRF193 200 nM) | SMILES |
| --- | --- | --- |
| > 45.8 µM | > 45.8 µM | CCC(=O)O[C@]1(C(=O)COC)[C@@H](C)C[C@H]2[C@@H]3CCC4=CC(=O)C=C[C@]4(C)[C@@]3(F)[C@@H](O)C[C@@]21C [Amelometasone] |
| > 45.8 µM | > 45.8 µM | COc1cc(N)cn[n+]1-c1ccccc1 [Amezinium methylsulfate] |
| > 45.8 µM | > 45.8 µM | COC(=O)c1cc(Cl)ccc1NS(=O)(=O)C(F)(F)F [Amidoflumet] |
| > 45.8 µM | > 45.8 µM | NCC[C@H](O)C(=O)N[C@@H]1C[C@H](N)[C@@H](O[C@H]2O[C@H](CN)[C@@H](O)[C@H](O)[C@H]2O)[C@H](O)[C@H]1O[C@H]1O[C@H](CO)[C@@H](O)[C@H](N)[C@H]1O [Amikacin] |
| > 45.8 µM | > 45.8 µM | N=C(N)NC(=O)c1nc(Cl)c(N)nc1N [Amiloride] |
| > 45.8 µM | > 45.8 µM | NCCCCCC(=O)O [Aminocaproic acid] |
| > 45.8 µM | > 45.8 µM | NCC(=O)CCC(=O)O [Aminolevulinic acid hydrochloride] |
| > 45.8 µM | > 45.8 µM | CC1(C)[C@@H](O[C@H]2O[C@H](C(=O)O)[C@@H](O)[C@H](O)[C@H]2O[C@@H]2O[C@H](C(=O)O)[C@@H](O)[C@H](O)[C@H]2O)CC[C@]2(C)[C@H]3C(=O)C=C4[C@@H]5C[C@@](C)(C(=O)O)CC[C@]5(C)CC[C@@]4(C)[C@]3(C)CC[C@@H]12 [Ammonium Glycyrrhizinate] |
| > 45.8 µM | > 45.8 µM | CCC(C)(C)OC(=O)N[C@@H](Cc1c[nH]c2ccccc12)C(=O)N[C@@H](CCSC)C(=O)N[C@@H](CC(=O)O)C(=O)N[C@@H](Cc1ccccc1)C(N)=O [Amogastrin] |
| > 45.8 µM | > 45.8 µM | CCC(C)(C)c1ccc(CC(C)CN2C[C@@H](C)O[C@@H](C)C2)cc1 (stereo partly specified) [Amorolfine hydrochloride] |
| > 45.8 µM | > 45.8 µM | Clc1ccc2c(c1)C(N1CCNCC1)=Nc1ccccc1O2 [Amoxapine] |
| > 45.8 µM | > 45.8 µM | CC1(C)S[C@@H]2[C@H](NC(=O)[C@H](N)c3ccc(O)cc3)C(=O)N2[C@H]1C(=O)O [Amoxicillin sodium] |
| > 45.8 µM | > 45.8 µM | C[C@@H]1[C@H](O)[C@@H](C)/C=C/C=C/C=C/C=C/C=C/C=C/C=C/[C@H](O[C@@H]2O[C@H](C)[C@@H](O)[C@H](N)[C@@H]2O)C[C@@H]2O[C@](O)(C[C@@H](O)C[C@@H](O)[C@H](O)CC[C@@H](O)C[C@@H](O)CC(=O)O[C@H]1C)C[C@H](O)[C@H]2C(=O)O [Amphotericin B] |

More lines, now with the values behind:

| SMILES | IC50 cell viability (ICRF193 0 nM) | IC50 cell viability (ICRF193 200 nM) |
| --- | --- | --- |
| Nc1c(CC(=O)O)cccc1C(=O)c1ccccc1 [Amfenac Sodium] | > 45.8 µM | > 45.8 µM |
| NCCCNCCSP(=O)(O)O [Amifostine] | > 45.8 µM | > 45.8 µM |
| COc1ccc(/C=C/C(=O)OCCC(C)C)cc1 [Amiloxate] | > 45.8 µM | > 45.8 µM |
| CCC1(c2ccc(N)cc2)CCC(=O)NC1=O (stereo unspecified) [Aminoglutethimide] | > 45.8 µM | > 45.8 µM |
| Nc1ccc(C(=O)NCC(=O)O)cc1 [Aminohippuric acid] | > 45.8 µM | > 45.8 µM |
| CC(CC(C(N)=O)(c1ccccc1)c1ccccc1)N(C)C (stereo unspecified) [Aminopentamide sulfate] | > 45.8 µM | > 45.8 µM |
| CCN1CCCC1CNC(=O)c1cc(S(=O)(=O)CC)c(N)cc1OC (stereo unspecified) [Amisulpride] | > 45.8 µM | > 45.8 µM |
| Cc1ccc(/N=C/N(C)/C=N/c2ccc(C)cc2C)c(C)c1 [Amitraz] | > 45.8 µM | > 45.8 µM |
| CC(C)c1ccc2oc3nc(N)c(C(=O)O)cc3c(=O)c2c1 [Amlexanox] | > 45.8 µM | > 45.8 µM |
| CCOC(=O)OC(C)OC1=C(C(=O)Nc2ccccn2)N(C)S(=O)(=O)c2ccccc21 (stereo unspecified) [Ampiroxicam] | > 45.8 µM | > 45.8 µM |
